These results are taken from PubChem BioAssay AID1918958 (Molecular Pharmacology Branch, DTP, NCI, 2023).

Each structure is given as a SMILES string. Several values for one entry are separate records, joined by “and”; a condition that tells them apart may be missing. Equal entries are not always repeated.

In the assay the test system is NCI-H196 complex spheroid viability. The assay can be described thus: Anticancer human tumor NCI-H196 cell line growth inhibition [LSD1].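 For all read-outs here: spheroids exposed to agents for 7 days before readout.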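 For viability, T/C: 100% = DMSO vehicle control viability.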 The following applies: for viability, T/C: stronger effect = lower value. A digest of the protocol: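 Complex spheroids of tumor cells with HUVEC and human MSCs, exposed to iadademstat combined with other agents. Each agent tested in half-log steps from near clinical Cmax (else 10 microM top), DMSO ≤0.25%.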

Where [1] appears, read: curve of first compound, second compound 0.1 µM.
The mark [2] stands for this setting: curve of first compound, second compound 0.316 µM.
The mark [3] stands for this setting: curve of first compound, second compound 1 µM.
[4] abbreviates: curve of first compound, second compound 3.16 µM.
The mark [5] stands for this setting: curve of first compound, second compound 10 µM.
The mark [6] stands for this setting: second compound 0.1 µM, first compound 0.0316 µM.
Setting [7] is: second compound 0.1 µM, first compound 0.1 µM.
The mark [8] stands for this setting: second compound 0.316 µM, first compound 0.0316 µM.
[9] abbreviates: second compound 0.316 µM, first compound 0.1 µM.
[10] abbreviates: second compound 1 µM, first compound 0.0316 µM.
The mark [11] stands for this setting: second compound 1 µM, first compound 0.1 µM.
[12] abbreviates: second compound 3.16 µM, first compound 0.0316 µM.
Where [13] appears, read: second compound 3.16 µM, first compound 0.1 µM.
The mark [14] stands for this setting: second compound 10 µM, first compound 0.0316 µM.
The mark [15] stands for this setting: second compound 10 µM, first compound 0.1 µM.

In the case of `CC[C@@]1(O)C(=O)OCc2c1cc1n(c2=O)Cc2cc3c(CN(C)C)c(O)ccc3nc2-1` + NC1CCC(NC2CC2c2ccccc2)CC1, the IC50 is, setting by setting: under setting [1], more than 0.1 µM; under setting [2], more than 0.1 µM; under setting [3], more than 0.1 µM; under setting [4], more than 0.1 µM; under setting [5], more than 0.1 µM. The viability, T/C (second compound 0.1 µM, first compound 0.000316 µM) was 96.8%; the viability, T/C (second compound 0.1 µM, first compound 0.001 µM) is 96.4%; the viability, T/C (second compound 0.1 µM, first compound 0.00316 µM) was 103%; the viability, T/C (second compound 0.1 µM, first compound 0.01 µM) is 107%; the viability, T/C under setting [6] was 115%; the viability, T/C under setting [7] was 94.1%. The viability, T/C was 96% (second compound 0.316 µM, first compound 0.000316 µM); 90.2% (second compound 0.316 µM, first compound 0.001 µM); 105% (second compound 0.316 µM, first compound 0.00316 µM); 118% (second compound 0.316 µM, first compound 0.01 µM); 110% under setting [8]; 101% under setting [9]. Moreover, the viability, T/C was 89.7% (second compound 1 µM, first compound 0.000316 µM); 105% (second compound 1 µM, first compound 0.001 µM); 98.6% (second compound 1 µM, first compound 0.00316 µM); 101% (second compound 1 µM, first compound 0.01 µM); 98.4% under setting [10]; 93.7% under setting [11]. Besides, the viability, T/C is 88.7% (second compound 3.16 µM, first compound 0.000316 µM); 95.3% (second compound 3.16 µM, first compound 0.001 µM); 91% (second compound 3.16 µM, first compound 0.00316 µM); 100% (second compound 3.16 µM, first compound 0.01 µM); 111% under setting [12]; 102% under setting [13]. Besides, the viability, T/C (second compound 10 µM, first compound 0.000316 µM) is 94.6%; the viability, T/C (second compound 10 µM, first compound 0.001 µM) is 89.7%; the viability, T/C (second compound 10 µM, first compound 0.00316 µM) is 98%; the viability, T/C (second compound 10 µM, first compound 0.01 µM) is 109%; the viability, T/C under setting [14] is 105%; the viability, T/C under setting [15] was 95.3%.
With `COc1cc(C2c3cc4c(cc3C(OC3OC5COC(C)OC5C(O)C3O)C3COC(=O)C23)OCO4)cc(OC)c1O` (centres undefined), the viability, T/C is, setting by setting: (compound 0.00949 µM) 98.3% and 98.5%; (compound 0.03 µM) 99.7% and 101%; (compound 0.0949 µM) 98.6% and 112%; (compound 0.3 µM) 108% and 112%; (compound 0.949 µM) 90.5% and 81.5%; (compound 3 µM) 65.7% and 59.9%. Further, where the note is “curve of compound”, the IC50 is more than 3 µM.
As to `CC(C)c1c(-c2ccccc2)nc2c(C#N)c[nH]n2c1=O` + NC1CC1c1ccc(-c2cccc(O)c2)cc1, the 50% inhibitory concentration (IC50) is, setting by setting: under setting [1], more than 10 µM; under setting [2], more than 10 µM; under setting [3], more than 10 µM; under setting [4], more than 10 µM; under setting [5], more than 10 µM. Moreover, the viability, T/C by setting is: under setting [6], 87.2%; under setting [7], 96.8%; (second compound 0.1 µM, first compound 0.316 µM) 88.4%; (second compound 0.1 µM, first compound 1 µM) 83.5%; (second compound 0.1 µM, first compound 3.16 µM) 93.1%; (second compound 0.1 µM, first compound 10 µM) 90.1%. Also, the viability, T/C was 92.7% under setting [8]; 102% under setting [9]; 98% (second compound 0.316 µM, first compound 0.316 µM); 89.4% (second compound 0.316 µM, first compound 1 µM); 94.6% (second compound 0.316 µM, first compound 3.16 µM); 88.2% (second compound 0.316 µM, first compound 10 µM). The viability, T/C was 96.7% under setting [10]; 95% under setting [11]; 91.1% (second compound 1 µM, first compound 0.316 µM); 96.7% (second compound 1 µM, first compound 1 µM); 104% (second compound 1 µM, first compound 3.16 µM); 79.8% (second compound 1 µM, first compound 10 µM). Also, the viability, T/C was 101% under setting [12]; 88.5% under setting [13]; 95.3% (second compound 3.16 µM, first compound 0.316 µM); 96.2% (second compound 3.16 µM, first compound 1 µM); 91.6% (second compound 3.16 µM, first compound 3.16 µM); 94.1% (second compound 3.16 µM, first compound 10 µM). Besides, the viability, T/C is 103% under setting [14]; 92.6% under setting [15]; 93.1% (second compound 10 µM, first compound 0.316 µM); 88.4% (second compound 10 µM, first compound 1 µM); 86.3% (second compound 10 µM, first compound 3.16 µM); 88% (second compound 10 µM, first compound 10 µM).
With `NC1CCC(NC2CC2c2ccccc2)CC1` (centres undefined), the viability, T/C is 93.8% and 93% (compound 0.316 µM); 96.9% [middle of 25 runs] (compound 1 µM); 97.9% [middle of 25 runs] (compound 3.16 µM); 97.5% [middle of 23 runs] (compound 10 µM). Besides, the IC50 (compound alone, run of 02/15/2022) is more than 10 µM.
Turning to `CCN(c1cc(-c2ccc(CN3CCOCC3)cc2)cc(C(=O)NCc2c(C)cc(C)[nH]c2=O)c1C)C1CCOCC1` + NC1CC1c1ccc(-c2cccc(O)c2)cc1, the IC50 under setting [1] is more than 3 µM; the 50% inhibitory concentration (IC50) under setting [2] was more than 3 µM; the IC50 under setting [3] is more than 3 µM; the IC50 under setting [4] was more than 3 µM; the IC50 under setting [5] is more than 3 µM. For the same compound, the viability, T/C by setting is: (second compound 0.1 µM, first compound 0.00949 µM) 93.6%; (second compound 0.1 µM, first compound 0.03 µM) 91.8%; (second compound 0.1 µM, first compound 0.0949 µM) 98%; (second compound 0.1 µM, first compound 0.3 µM) 108%; (second compound 0.1 µM, first compound 0.949 µM) 107%; (second compound 0.1 µM, first compound 3 µM) 118%. The viability, T/C reads like this: (second compound 0.316 µM, first compound 0.00949 µM) 94.5%; (second compound 0.316 µM, first compound 0.03 µM) 97.8%; (second compound 0.316 µM, first compound 0.0949 µM) 113%; (second compound 0.316 µM, first compound 0.3 µM) 104%; (second compound 0.316 µM, first compound 0.949 µM) 110%; (second compound 0.316 µM, first compound 3 µM) 110%. Also, the viability, T/C is 97.4% (second compound 1 µM, first compound 0.00949 µM); 102% (second compound 1 µM, first compound 0.03 µM); 102% (second compound 1 µM, first compound 0.0949 µM); 106% (second compound 1 µM, first compound 0.3 µM); 116% (second compound 1 µM, first compound 0.949 µM); 112% (second compound 1 µM, first compound 3 µM). The viability, T/C is, setting by setting: (second compound 3.16 µM, first compound 0.00949 µM) 98.4%; (second compound 3.16 µM, first compound 0.03 µM) 99%; (second compound 3.16 µM, first compound 0.0949 µM) 101%; (second compound 3.16 µM, first compound 0.3 µM) 102%; (second compound 3.16 µM, first compound 0.949 µM) 98.9%; (second compound 3.16 µM, first compound 3 µM) 103%. The viability, T/C (second compound 10 µM, first compound 0.00949 µM) is 98.6%; the viability, T/C (second compound 10 µM, first compound 0.03 µM) was 109%; the viability, T/C (second compound 10 µM, first compound 0.0949 µM) is 104%; the viability, T/C (second compound 10 µM, first compound 0.3 µM) is 104%; the viability, T/C (second compound 10 µM, first compound 0.949 µM) was 105%; the viability, T/C (second compound 10 µM, first compound 3 µM) was 92.9%.
With `CCc1c2c(nc3ccc(O)cc13)-c1cc3c(c(=O)n1C2)COC(=O)[C@]3(O)CC`, the viability, T/C by setting is: (compound 0.000949 µM) 99.5% and 104%; (compound 0.003 µM) 103% and 96.6%; (compound 0.00949 µM) 52.9% and 47.5%; (compound 0.03 µM) 2.96% and 3.28%; (compound 0.0949 µM) 1.29% and 0.86%; (compound 0.3 µM) 1.52% and 0.88%. Further, for the setting “curve of compound”, the half-maximal inhibitory concentration (IC50) is 0.0101 µM and 0.00888 µM.
